Measured values: patent publication US9034914B2, “Pharmaceutical composition comprising rotigotine salts (acid or Na), especially for iontophoresis” (UCB Pharma GmbH, priority 2009, dated 2015)
Read-outs that look alike come from different tables or passages of the source.

Type: in vitro ADME, human
Details: for steady state flux ± s.d., iontophoresis stage / Mean steady state flux ± sd: 9 h
Description: The preparation of human stratum corneum (HSC) was performed according to the method described previously (Nugroho et al., (Nugroho et al., J. Control Release (2005) 103, 393-403) which is incorporated herein by reference. Briefly, within 24 hours after surgical removal of the human skin residual subcutaneous fat was removed. Dermatomed human skin (DHS) was obtained by dermatoming the skin to a thickness of about 300 μm. In order to obtain HSC, DHS was incubated with the dermal side on Whatman paper soaked in a solution of 0.1% trypsin in 150 mM phosphate buffered saline (PBS) pH 7.4 (NaCl: 8 g·L^−1, Na2HPO4: 2.86 g·L^−1, KH2PO4: 0.2 g·L^−1, KCl: 0.19 g·L^−1) overnight at 4° C. and subsequently for 1 hour at 37° C. after which HSC was peeled off from the underlying viable epidermis and dermis. HSC was subsequently washed in a 0.1% trypsin inhibitor solution in Millipore water and several times in water and stored in a desiccator in a N2 environment.
The in vitro transport studies were done by using a 9-channel computer controlled power supply in order to provide a constant direct current (Electronics Department, Gorlaeus Laboratories, Leiden University, The Netherlands) during iontophoresis. The system was equipped with differential input channels per current source enabling on-line measurement of the electric resistance across HSC in each diffusion cell. Ag/AgCl was used as driver electrode pair. All transport experiments were carried out, using a three chamber continuous flow through cell as described elsewhere (Nugroho et al., J. Control Release (2005) 103, 393-403). The donor formulation, buffered with a 10 mM citric buffer, was applied at the anodal side. The cathodal chamber was filled with PBS pH 7.4. The acceptor phase, maintained at 32° C., was continuously perfused with PBS pH 6.2 (NaCl: 8 g·L^−1, KCl: 0.19 g·L^−1, Na2HPO4.2H2O: 0.43 g·L^−1, KH2PO4: 0.97 g·L^−1) at a flow rate of 7.0 ml·h^−1. Unless described elsewhere, the following protocol for the iontophoresis experiments was used: 6 hours of passive diffusion, followed by 9 hours of iontophoresis with a current density of 500 μA·cm^−2 and 5 hours of passive diffusion. Samples were collected every hour with an automatic fraction collector (ISCORetriever IV, Beun De Ronde B V, Abcoude, The Netherlands). The specific conditions of the individual transport studies are described below.
Prior to and at the end of a transport study the pH of donor and acceptor compartment was measured. All samples of the iontophoretic transport studies were analyzed by RP-HPLC using a Superspher® 60 RP-select B, 75 mm-4 mm column (Merck KGaA, Darmstadt, Germany). Rotigotine was detected using a scanning fluorescence detector (Waters™ 474, Millipore, Milford, Mass., USA) at excitation and emission wavelengths of 276 and 302 nm. Acetaminophen was detected using a UV detector (Dual λ Absorbance Detector 2487, Waters, Milford, USA) at a wavelength of 254 nm. Filtered and degassed mobile phase contained 60% H2O (v/v), 40% ACN (v/v) and 0.05% methanesulfonic acid (v/v). The injection volume was 50 μL and the flow rate was set to 1.0 mL·min^−1.
To calculate the steady state flux during passive and iontophoretic transport, the cumulative flux of the transport was plotted as a function of time. The steady state flux was estimated from the linear part of the slope of this plot according to the permeation lag-time method^7. All data are presented as mean±standard deviation (s.d.). When a statistical analysis was performed comparing only 2 groups, a Students t-test was used. When 3 or more groups were compared, a 1-way ANOVA statistical analysis was executed. If the overall p-value was less than 0.05, a bonferonni post-test was applied to compare different groups. For all statistical analysis a significance level of p<0.05 was used. […]

SMILES: CCCN(CCc1cccs1)[C@H]1CCc2c(O)cccc2C1.O=P(O)(O)O [rotigotine.H3PO4, rotigotine dihydrogen phosphate]
- time to reach steady state flux after current application (citric buffer pH 5, FIG. 3): within four hours
- steady state flux ± s.d., passive stage (human, 6 h, 1.24 mg/ml, pH 6): 4.1 ± 1.9 μg/cm^2/h
- steady state flux ± s.d., passive stage (human, 6 h, 1.28 mg/ml, pH 5): 0.5 ± 0.2 μg/cm^2/h
- steady state flux ± s.d., passive stage (human, 6 h, 1.42 mg/ml, pH 6): 3.2 ± 0.2 μg/cm^2/h
- steady state flux ± s.d., passive stage (human, 6 h, 1.46 mg/ml, pH 5): 0.9 ± 0.3 μg/cm^2/h
- steady state flux ± s.d., passive stage (human, 6 h, 3.11 mg/ml, pH 5): 1.0 ± 0.1 μg/cm^2/h
- steady state flux ± s.d., passive stage (human, 6 h, 4.13 mg/ml, pH 6): 9.3 ± 0.9 μg/cm^2/h
- steady state flux ± s.d., passive stage (human, 6 h, 4.3 mg/ml, pH 6): 12.3 ± 0.9 μg/cm^2/h
- steady state flux ± s.d., passive stage (human, 6 h, 6.95 mg/ml, pH 5): 2.3 ± 0.5 μg/cm^2/h
- steady state flux ± s.d., passive stage (human, 6 h, 9.88 mg/ml, pH 5.5): 7.7 ± 0.5 μg/cm^2/h
- steady state flux ± s.d., passive stage (human, 6 h, 15.09 mg/ml, pH 5): 3.6 ± 0.5 μg/cm^2/h
- Flux (human, 6 h, 31.3 mM, pH 5.5): 24.4±1.9 nmol·cm^−2·h^−1
- maximum passive flux close to saturation in the donor phase (human, 6 h, pH 5): 10.8±1.9 nmol·cm^−2·h^−1
- maximum passive flux close to saturation in the donor phase (human, 6 h, pH 6): 24.9 nmol·cm^−2·h^−1
- steady state flux ± s.d., iontophoresis stage (human, 1.24 mg/ml, pH 6): 26.4 ± 1.3 μg/cm^2/h
- steady state flux ± s.d., iontophoresis stage (human, 1.28 mg/ml, pH 5): 20.0 ± 4.9 μg/cm^2/h
- Mean steady state flux ± sd (human, 1.4 mg/ml, pH 5): 22.1 ± 2.5 μg/cm^2/h
- steady state flux ± s.d., iontophoresis stage (human, 1.42 mg/ml, pH 6): 25.1 ± 3.3 μg/cm^2/h
- steady state flux ± s.d., iontophoresis stage (human, 1.46 mg/ml, pH 5): 22.1 ± 2.5 μg/cm^2/h
- Mean steady state flux ± sd (human, 3 mg/ml, pH 5): 26.0 ± 2.1 μg/cm^2/h
- steady state flux ± s.d., iontophoresis stage (human, 3.11 mg/ml, pH 5): 26.0 ± 2.1 μg/cm^2/h
- steady state flux ± s.d., iontophoresis stage (human, 4.13 mg/ml, pH 6): 43.0 ± 2.6 μg/cm^2/h
- steady state flux ± s.d., iontophoresis stage (human, 4.3 mg/ml, pH 6): 47.1 ± 1.8 μg/cm^2/h
- steady state flux ± s.d., iontophoresis stage (human, 6.95 mg/ml, pH 5): 33.7 ± 4.7 μg/cm^2/h
- steady state flux ± s.d., iontophoresis stage (human, 9.88 mg/ml, pH 5.5): 47.9 ± 3.1 μg/cm^2/h
- steady state flux ± s.d., iontophoresis stage (human, 15.09 mg/ml, pH 5): 41.5 ± 3.4 μg/cm^2/h
- decrease in steady state flux resulting from the decrease in donor concentration (human, 24 h, pH 5): 10%
- increase in maximum flux compared to rotigotine.HCl (human, pH 5): 170%
- maximum iontophoretic flux (human, pH 5): 135.8±12.5 nmol·cm^−2·h^−1
- time to reach steady state of passive transport (no current, prior to iontophoresis): ≤ 6 h
- time to reach steady state flux after current application (pH 5.5, 31.3 mM, 68 mM NaCl, stepwise increase of current density): ≤ 6 h
